Patent publication US7435540B2 (IDEXX Corporation, priority 2002, dated 2008)

Tests used:
[1] = test system: PrP^Sc
[2] = target: mouse PrP^Sc (Mus musculus, UniProt P04925)
[3] = target: PrP^Sc (Mus musculus, UniProt P04925)
[4] = target: PrP^C (Mesocricetus auratus, UniProt P04273)
[5] = target: bovine PrP^Sc (Bos taurus, UniProt P10279)
bovine PrP^Sc, sequence (P10279 25-241 limits assumed): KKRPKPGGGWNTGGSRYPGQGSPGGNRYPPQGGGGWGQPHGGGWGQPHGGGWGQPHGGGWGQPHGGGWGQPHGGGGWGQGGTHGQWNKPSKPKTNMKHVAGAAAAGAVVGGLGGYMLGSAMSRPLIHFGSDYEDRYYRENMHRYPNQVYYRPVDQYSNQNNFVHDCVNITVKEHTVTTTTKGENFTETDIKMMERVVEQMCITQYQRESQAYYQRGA

PrP^Sc (Mus musculus, UniProt P04925), sequence (P04925 23-230 limits assumed): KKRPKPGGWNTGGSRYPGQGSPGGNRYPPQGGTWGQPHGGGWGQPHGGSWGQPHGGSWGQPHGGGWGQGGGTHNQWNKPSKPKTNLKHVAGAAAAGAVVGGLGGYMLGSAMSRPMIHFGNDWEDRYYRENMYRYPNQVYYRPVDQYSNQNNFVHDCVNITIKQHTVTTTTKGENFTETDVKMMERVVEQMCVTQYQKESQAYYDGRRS
mouse PrP^Sc, sequence (P04925 23-230 limits assumed): as above
PrP^C, sequence (P04273 23-231 limits assumed): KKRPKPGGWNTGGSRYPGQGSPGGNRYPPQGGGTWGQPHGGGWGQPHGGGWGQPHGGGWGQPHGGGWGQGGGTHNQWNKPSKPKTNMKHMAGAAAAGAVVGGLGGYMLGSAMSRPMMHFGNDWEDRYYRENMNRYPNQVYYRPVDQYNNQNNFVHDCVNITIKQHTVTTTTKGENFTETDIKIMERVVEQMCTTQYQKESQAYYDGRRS

DEAYYKGWFAY was tested, and the “PrP^Sc selective binding / capture” value [1] was “negative for PrP^Sc selective capture”.

YARYARYAR was tested, and the “PrP^Sc selective binding / capture” value [1] was “shown to selectively bind PrP^Sc”.

In the case of NHSTHNTGH, the “PrP^Sc selective binding / capture” value [1] is reported as “negative for PrP^Sc selective capture”.

With YSAASYASY the “competition with YYRRYYRYY beads for capture of mouse PrP^Sc” value (“competition with YYRRYYRYY beads” for short) [2] was “compete” and the “precipitation of PrP^Sc from scrapie mouse brain lysate” value (“precipitation of PrP^Sc” for short) [3] was “precipitation of PrP^Sc was observed”.

YYRRYYRYY was tested, and the “precipitation of normal isoform PrP^C from normal hamster brain lysate” value [4] was “not the normal isoform”, the “capture of PrP^Sc from BSE-positive bovine brain lysate” value [5] was “captures PrP^Sc” and the “precipitation of PrP^Sc” value [3] was “precipitation of PrP^Sc was observed”.

With YRAARYRAY the “PrP^Sc selective binding / capture” value [1] was “shown to selectively bind PrP^Sc”.

In the case of YYAAYYAYY, the “competition with YYRRYYRYY beads” value [2] is reported as “compete” and the “precipitation of PrP^Sc” value [3] is reported as “precipitation of PrP^Sc was observed”.

For YARRAYRAY, the “capture of PrP^Sc from BSE-positive bovine brain lysate” value [5] was “failed to capture PrP^Sc”, the “competition with YYRRYYRYY beads” value [2] was “failed to compete” and the “precipitation of PrP^Sc” value [3] was “not with YAR or AYR repeats”.

DRYYWYFDV was tested, and the “PrP^Sc selective binding / capture” value [1] was “negative for PrP^Sc selective capture”.

For AYRRYARYA, the “precipitation of PrP^Sc” value [3] was “not with YAR or AYR repeats”.
